Assay in all cases: in vitro antibacterial activity, agar plate dilution method
Holding throughout (format): cell-based

The test system of one test is Ps. cepacia 23. As to conditions: 10^6 CFU/ml, Mueller Hinton agar, 37° C., 16 hours. As for the experimental part: (§1) Now, the in vitro antibacterial activities of the compounds of the present invention against various microorganisms, were measured by the following agar plate dilution method.
(§2) One platinum loopfull of each test microorganism incubated overnight in Mueller Hinton broth, was inoculated to Mueller Hinton agar (MH agaer). Such culture media containing various antibiotics in various concentrations were prepared. After incubation at 37° C. for 16 hours, the minimum inhibitory concentrations (MIC μg/ml) were measured.

In the next test the test system is E. coli CSH(RE45)*. As to conditions: 10^6 CFU/ml, β-Lactamase-producing strain, 37° C., 16 hours. The method, then:
as §1, §2

Another test relates to K. oxytoca GN10650*. As for the experimental part: as §1, §2
The next test relates to Ps. aeruginosa AKR17. To be noted: 10^6 CFU/ml, Mueller Hinton agar, 37° C., 16 hours. As for the experimental part:
as §1, §2

The subject of the next test is S. aureus 209P NIHJ-JC1. To be noted: 10^6 CFU/ml, Mueller Hinton agar, 37° C., 16 hours. The method, then: as §1, §2
A further test concerns S. marcescens No. 16-2*. As for the experimental part: as §1, §2
Another test relates to K. pneumoniae No. 42*. As for the experimental part:
as §1, §2

The next test has as its system Ps. aeruginosa IFO3445. The method, then:
as §1, §2

The next test concerns A. calcoaceticus No. 4. The method, then:
as §1, §2

A further test has as its system K. pneumoniae PC1-602. The method, then: as §1, §2
For the next test, the system named is S. marcescens IAM 1184. As for the experimental part:
as §1, §2

In another test the test system is E. coli CSH2(RK1)*. To be noted: Escherichia coli, 16 h. The method, then: as §1, §2
A further test deals with E. coli NIHJ JC2. As to conditions: 10^6 CFU/ml, Mueller Hinton agar, 37° C., 16 hours. The method, then: as §1, §2
A further test concerns Ps. aeruginosa AK 109. As for the experimental part: as §1, §2
Another test has as its system E. coli GN5482*. The method, then: as §1, §2
A further test concerns E. cloacae Nek 39*. As for the experimental part: as §1, §2
In another test the test system is M. morganii GN5407*. To be noted: 10^6 CFU/ml, β-Lactamase-producing strain, 37° C., 16 hours. The method, then:
as §1, §2

The test system of another test is P. vulgaris HX-19. As to conditions: 10^6 CFU/ml, Mueller Hinton agar, 37° C., 16 hours. The method, then:
as §1, §2

Another test concerns E. cloacae 963. As for the experimental part: as §1, §2
The next test relates to P. vulgaris No. 33*. As to conditions: 10^6 CFU/ml, β-Lactamase-producing strain, 37° C., 16 hours. As for the experimental part:
as §1, §2

Where [1] appears, read: Burkholderia cepacia, 23, read-out: MIC.
Where [2] appears, read: Escherichia coli, read-out: MIC.
Setting [3] is: Pseudomonas aeruginosa, AKR17, read-out: MIC.
The mark [4] stands for this setting: Staphylococcus aureus, read-out: MIC.
Where [5] appears, read: Escherichia coli, NIHJJC2, read-out: MIC.
Where [6] appears, read: Morganella morganii, GN5407, read-out: MIC.
The mark [7] stands for this setting: Proteus vulgaris, HX19, read-out: MIC.
The mark [8] stands for this setting: Proteus vulgaris, read-out: MIC.
Setting [9] is: 10^6 CFU/ml, β-Lactamase-producing strain, 37° C., 16 hours.
The mark [10] stands for this setting: 10^6 CFU/ml, Mueller Hinton agar, 37° C., 16 hours.

Values after ≈ are worked out from the molar mass of the structure shown. Like-named read-outs stand apart in the source and are kept apart here.

What is called MIC is the least concentration at which growth counts as inhibited. `C=C(O/N=C(\C(=O)N[C@@H]1C(=O)N2C(C(=O)O)=C(CSc3nnc(-c4ccc(O)c(O)c4)o3)CS[C@H]12)c1csc(N)n1)C(=O)O` [Example 11, disodium 7β-[2-(2-aminothiazol-4-yl)-2-(1-carboxy-1-vinyloxyimino)acetamido]-3-[5-(3,4-dihydroxyphenyl)-1,3,4-oxadiazol-2-yl]thiomethyl-3-cephem-4-carboxylate (syn-isomer)]: the MIC with Ps. cepacia 23 (setting [1]) was less than 0.006 µg/mL; in the test with E. coli CSH(RE45)* (setting [2]) it was 0.05 µg/mL; in the test on K. oxytoca GN10650* (Klebsiella oxytoca, GN10650, 10^6 CFU/ml, β-Lactamase-producing strain, 37° C., 16 hours, read-out: MIC) it was 0.025 µg/mL; with Ps. aeruginosa AKR17 (setting [3]), 3.12 µg/mL; in the test on S. aureus 209P NIHJ-JC1 (setting [4]), 12.5 µg/mL; with S. marcescens No. 16-2* (Serratia marcescens, 16 h), 0.2 µg/mL. Moreover, the MIC in the test with K. pneumoniae No. 42* (Klebsiella pneumoniae, 10^6 CFU/ml, β-Lactamase-producing strain, 37° C., 16 hours, read-out: MIC) was 0.025 µg/mL; in the test on Ps. aeruginosa IFO3445 (Pseudomonas aeruginosa, IFO3445, 16 h), 0.39 µg/mL; in the test on A. calcoaceticus No. 4 (Acinetobacter calcoaceticus, NO.4, 16 h), 0.1 µg/mL; in the test on K. pneumoniae PC1-602 (Klebsiella pneumoniae, PC1602, 10^6 CFU/ml, Mueller Hinton agar, 37° C., 16 hours, read-out: MIC), less than 0.006 µg/mL; with S. marcescens IAM 1184 (Serratia marcescens, IAM1184, 10^6 CFU/ml, Mueller Hinton agar, 37° C., 16 hours, read-out: MIC) it was 0.025 µg/mL; against E. coli CSH2(RK1)*, less than 0.006 µg/mL. Also, the MIC was 0.05 µg/mL in the test with E. coli NIHJ JC2 (setting [5]); 0.2 µg/mL in the test on Ps. aeruginosa AK 109 (Pseudomonas aeruginosa, AK109, 16 h); 0.1 µg/mL in the test on E. coli GN5482* (Escherichia coli, GN5482, 16 h); 0.025 µg/mL in the test with E. cloacae Nek 39* (Enterobacter cloacae, 10^6 CFU/ml, β-Lactamase-producing strain, 37° C., 16 hours, read-out: MIC); 0.0125 µg/mL with M. morganii GN5407* (setting [6]); less than 0.006 µg/mL in the test with P. vulgaris HX-19 (setting [7]). Further, the minimum inhibitory concentration (MIC) in the test with E. cloacae 963 (Enterobacter cloacae, 963, 10^6 CFU/ml, Mueller Hinton agar, 37° C., 16 hours, read-out: MIC) was 0.025 µg/mL; in the test on P. vulgaris No. 33* (setting [8]), 0.0125 µg/mL.
With `C=C(O/N=C(\C(=O)N[C@@H]1C(=O)N2C(C(=O)O)=C(CSc3nnc(C)s3)CS[C@H]12)c1csc(N)n1)C(=O)O` [Example 18, disodium 7β-[2-(2-aminothiazol-4-yl)-2-11-carboxylato-1-vinyloxyimino)acetamido]-3-(5-methyl-1,3,4-thiadiazol-2-yl)thiomethyl-3-cephem-4-carboxylate (syn-isomer)], the minimal inhibitory concentration (MIC) in the test on Ps. cepacia 23 (setting [1]) was 3.12 µg/mL; in the test on E. coli CSH(RE45)* (setting [2]), 0.1 µg/mL; with K. oxytoca GN10650* (Klebsiella oxytoca, GN10650, 16 h), 0.2 µg/mL; in the test with Ps. aeruginosa AKR17 (setting [3]) it was greater than 100 µg/mL; in the test with S. aureus 209P NIHJ-JC1 (setting [4]) it was 3.12 µg/mL; in the test on S. marcescens No. 16-2* (Serratia marcescens, 10^6 CFU/ml, β-Lactamase-producing strain, 37° C., 16 hours, read-out: MIC), 3.12 µg/mL. For the same compound, the MIC was 0.39 µg/mL with K. pneumoniae No. 42* (Klebsiella pneumoniae, 16 h); 12.5 µg/mL in the test on Ps. aeruginosa IFO3445 (Pseudomonas aeruginosa, IFO3445, 10^6 CFU/ml, Mueller Hinton agar, 37° C., 16 hours, read-out: MIC); 100 µg/mL in the test with A. calcoaceticus No. 4 (Acinetobacter calcoaceticus, NO.4, 10^6 CFU/ml, Mueller Hinton agar, 37° C., 16 hours, read-out: MIC); 0.025 µg/mL in the test on K. pneumoniae PC1-602 (Klebsiella pneumoniae, PC1602, 16 h); 0.025 µg/mL with S. marcescens IAM 1184 (Serratia marcescens, IAM1184, 16 h); 0.025 µg/mL against E. coli CSH2(RK1)*. For the same compound, the MIC with E. coli NIHJ JC2 (setting [5]) is 0.2 µg/mL; in the test on Ps. aeruginosa AK 109 (Pseudomonas aeruginosa, AK109, 10^6 CFU/ml, Mueller Hinton agar, 37° C., 16 hours, read-out: MIC), 12.5 µg/mL; in the test on E. coli GN5482* (Escherichia coli, GN5482, 16 h), 0.39 µg/mL; against E. cloacae Nek 39* (Enterobacter cloacae, 16 h), 0.78 µg/mL; with M. morganii GN5407* (setting [6]), 0.0125 µg/mL; in the test on P. vulgaris HX-19 (setting [7]), less than 0.006 µg/mL. Moreover, the MIC was 0.2 µg/mL against E. cloacae 963 (Enterobacter cloacae, 963, 16 h) and less than 0.006 µg/mL in the test on P. vulgaris No. 33* (setting [8]).
Turning to `C=C(ON=C(C(=O)N[C@@H]1C(=O)N2C(C(=O)[O-])=C(C[n+]3ccccc3)CS[C@H]12)c1csc(N)n1)C(=O)O` (single isomer, unassigned) [Example 1, 7β-[2-(2-aminothiazol-4-yl)-2-(1-carboxy-1-vinyloxyimino)acetamido]-3-(1-pyridinio)methyl-3-cephem-4-carboxylate (syn-isomer)], the MIC was 3.12 µg/mL (≈ 5.88 µM) in the test on Ps. cepacia 23; 0.025 µg/mL (≈ 0.0471 µM) against E. coli CSH(RE45)*; 0.1 µg/mL (≈ 0.188 µM) against K. oxytoca GN10650* (setting [9]); greater than 100 µg/mL against Ps. aeruginosa AKR17; 3.12 µg/mL (≈ 5.88 µM) in the test on S. aureus 209P NIHJ-JC1; 0.78 µg/mL (≈ 1.47 µM) against S. marcescens No. 16-2* (setting [9]). In addition, the MIC is 0.1 µg/mL (≈ 0.188 µM) against K. pneumoniae No. 42* (setting [9]); 0.78 µg/mL (≈ 1.47 µM) against Ps. aeruginosa IFO3445 (setting [10]); 12.5 µg/mL (≈ 23.6 µM) in the test on A. calcoaceticus No. 4 (setting [10]); less than 0.006 µg/mL against K. pneumoniae PC1-602 (setting [10]); less than 0.006 µg/mL in the test with S. marcescens IAM 1184 (setting [10]); 0.025 µg/mL (≈ 0.0471 µM) against E. coli NIHJ JC2. Further, the MIC against Ps. aeruginosa AK 109 (setting [10]) is 1.56 µg/mL (≈ 2.94 µM); in the test on E. coli GN5482* (setting [9]) it was 0.2 µg/mL (≈ 0.377 µM); in the test with E. cloacae Nek 39* (setting [9]), 0.39 µg/mL (≈ 0.735 µM); against M. morganii GN5407* it was 0.0125 µg/mL (≈ 0.0236 µM); in the test on P. vulgaris HX-19, 0.0125 µg/mL (≈ 0.0236 µM); against E. cloacae 963 (setting [10]), 0.025 µg/mL (≈ 0.0471 µM). This compound also came in with an MIC against P. vulgaris No. 33* of 0.0125 µg/mL (≈ 0.0236 µM).

These data come from patent US5084453A, “1-carboxy-1-vinyloxyimino aminothiazole cephalosporin derivatives” (priority 1988, dated 1992).
